≈ marks a conversion by molar mass, not a printed value. Where two headings read alike, the source gives them in different places.
Legend:
[1] = Aqueous solubility of modafinil, alone and in HPβCD solutions; assay type: physicochemical; conditions: thermodynamic from solid
Description: The following HPLC method may be used to measure the modafinil compound content in the compositions. Filter a solution saturated with a modafinil compound through a 1.2 μm syringe filter. Dilute 10 μL of the clear solution to 1 mL with 990 μL of dimethylsulfoxide (Fischer Certified ACS grade). Take 10 μL of the diluted solution for the HPLC analysis, with the following representative column conditions: • Flow rate: 1.2 mL/min. • Column: ODS, 4.6×20 mm, Column Temp: 30° C. • Mobil phase: 80%(65% Acetonitrile/35%1M phosphate buffer) 20% water • Analysis time: 5 minutes • Wavelength: 222 nanometers
Concentration can be calculated by comparison to area from a modafinil compound standard used at 0.4 mg/mL with appropriate dilution.

mice = conditions: single administration; cited from earlier work
monkeys = conditions: single administration; cited from earlier work

`NC(=O)C[S+]([O-])C(c1ccccc1)c1ccccc1` (stereo not drawn) [modafinil, 2-(benzhydryl-sulfinyl)acetamide] gave a solubility ([1]; aqueous with cosolvent or surfactant or cyclodextrin, 2% HPβCD solution, from 1:1 complex, read-out: amount solubilized) of about 4.4 mg/mL (≈ 16.1 mM), a solubility ([1]; aqueous with cosolvent or surfactant or cyclodextrin, 20% HPβCD solution, from 1:1 complex, read-out: amount solubilized) of about 39.5 mg/mL (≈ 144 mM) and a solubility ([1]; aqueous with cosolvent or surfactant or cyclodextrin, 40% HPβCD solution, from 1:1 complex, read-out: amount solubilized) of about 78.4 mg/mL (≈ 287 mM). For the same compound, the solubility ([1]; water without cyclodextrin, water, read-out: aqueous solubility) was 0.44 mg/mL (≈ 1.61 mM), the locomotor activity (mice) was “increased locomotor activity” and the nocturnal activity (monkeys) was “increased nocturnal activity”.
